Assay results: paper PMC3943701 (Biochimica et biophysica acta, 2013)
“Also recorded” adds a separate entry of the source. Where two headings read alike, the source gives them in different places.

What was measured:
M2 His37 = settings: addition of amantadine; ref [17]; cited from earlier work
[1] = system: M2(19–62) wild type construct; format: biochemical, influenza A virus (A/Udorn/72); settings: liposomes pre-mixed with amantadine HCl 3 h, 18°C
[2] = system: M2(19–62) thiazolylalanine construct; format: biochemical, influenza A virus (A/Udorn/72); settings: pH 2.4
influenza A/M2 protein = settings: sensitive circulating influenza strains; ref [2], [3]; cited from earlier work
[3] = in solution, no reference given, cited from earlier work

Row | SMILES | effect on His37 ring flip, protonation and deprotonation (in words) (M2 His37) | inhibitory effect of amantadine on flux (in words) ([1]; bathing buffer pH 2.4) | amantadine sensitivity of flux (in words) ([1]; bathing buffer pH 7.4 and 4.9) | amantadine inhibition of currents (in words) [2] | inhibition of M2 proton transport (in words) (influenza A/M2 protein) | solution pKa of side chain [3] | solution pKa of side chain ([3]; listed as imidazole)
1 | NC12CC3CC(CC(C3)C1)C2 [amantadine] | significantly inhibited | No inhibitory effect; also recorded: begins to be lost | amantadine-sensitive | robust amantadine inhibition | inhibited | – | –
2 | CC(N)C12CC3CC(CC(C3)C1)C2 (centres unmarked) [rimantadine] | – | – | – | – | inhibited | – | –
3 | N[C@@H](Cc1c[nH]cn1)C(=O)O [histidine] | – | – | – | – | – | 6.5 | ~ 6.5
